In ChEMBL document CHEMBL1145987, “Structural determinants of selective thyromimetics” (J Med Chem, 2003):

Columns and labels:
[1] = target: T1, Thyroid hormone receptor beta (Homo sapiens, UniProt P10828); assay: Binding affinity of compound was determined against thyroid hormone receptor beta 1
T1 sequence (P10828 whole entry): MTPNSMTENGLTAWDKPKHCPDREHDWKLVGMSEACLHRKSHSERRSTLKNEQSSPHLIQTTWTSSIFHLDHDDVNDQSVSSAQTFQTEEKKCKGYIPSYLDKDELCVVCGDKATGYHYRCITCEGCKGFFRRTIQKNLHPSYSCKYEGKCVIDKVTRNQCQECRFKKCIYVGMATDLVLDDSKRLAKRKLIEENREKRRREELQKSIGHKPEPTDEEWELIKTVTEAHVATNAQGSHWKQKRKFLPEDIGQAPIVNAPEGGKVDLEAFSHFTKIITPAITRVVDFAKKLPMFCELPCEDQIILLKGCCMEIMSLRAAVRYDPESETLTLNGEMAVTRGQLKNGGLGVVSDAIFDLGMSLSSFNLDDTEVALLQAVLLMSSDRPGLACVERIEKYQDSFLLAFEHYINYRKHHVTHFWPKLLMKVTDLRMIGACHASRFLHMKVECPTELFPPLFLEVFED

[2] = target: T2, Thyroid hormone receptor alpha (Homo sapiens, UniProt P10827); assay: Binding affinity of compound was determined against Thyroid hormone receptor alpha1
T2 sequence (P10827 whole entry): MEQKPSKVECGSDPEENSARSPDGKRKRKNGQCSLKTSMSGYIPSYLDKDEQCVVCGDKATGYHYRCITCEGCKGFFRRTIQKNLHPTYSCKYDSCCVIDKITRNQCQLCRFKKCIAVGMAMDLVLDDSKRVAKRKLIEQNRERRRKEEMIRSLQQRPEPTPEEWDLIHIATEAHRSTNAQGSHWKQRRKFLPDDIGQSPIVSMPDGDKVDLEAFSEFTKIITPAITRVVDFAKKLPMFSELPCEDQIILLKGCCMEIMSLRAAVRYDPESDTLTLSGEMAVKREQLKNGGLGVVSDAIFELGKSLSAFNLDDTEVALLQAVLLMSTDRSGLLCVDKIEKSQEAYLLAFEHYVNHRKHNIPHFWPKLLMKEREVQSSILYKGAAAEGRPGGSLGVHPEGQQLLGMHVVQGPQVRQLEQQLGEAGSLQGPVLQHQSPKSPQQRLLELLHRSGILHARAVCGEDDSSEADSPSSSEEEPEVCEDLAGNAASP

Row | SMILES | Kd [1] [nM] | Kd [2] [nM]
1 | Cc1cc(CCC(=O)O)cc(C)c1Cc1ccc(O)c(C(C)C)c1 | 0.22 | 0.69
2 | Cc1cc(C[C@H](N)C(=O)O)cc(C)c1Cc1ccc(O)c(C(C)C)c1 | 1.26 | 2.02
3 | Cc1cc(C[C@H](N)C(=O)O)cc(C)c1Oc1ccc(O)c(C(C)C)c1 | 6.2 | 8.5
4 | Cc1cc(OCC(=O)O)cc(C)c1Oc1ccc(O)c(C(C)C)c1 | 0.36 | 2.4
